The test system of this assay is stably HCV RNA-replicating cell line, AVA5 (genotype 1b, subgenomic replicon). Kind of assay: HCV replicon assay (intracellular HCV RNA levels by blot hybridization, normalized to β-actin RNA). Format: cell-based. To be noted: Hepatitis C virus, AVA5 cells, HCV genotype 1b subgenomic replicon, compounds added daily for three days, HCV RNA assessed 72 hours after treatment. The procedure: Antiviral activity of test compounds was assessed (Okuse, et al., Antivir. Res. 2005 65:23) in the stably HCV RNA-replicating cell line, AVA5 (genotype 1b, subgenomic replicon, Blight, et al., Sci. 2000 290:1972). Compounds were added to dividing cultures daily for three days. […] Intracellular HCV RNA levels and cytotoxicity were assessed 72 hours after treatment.
Quadruplicate cultures for HCV RNA levels and cytoxicity (on 96-well plates) were used. A total of 12 untreated control cultures, and triplicate cultures treated with α-interferon (concentrations of: 10 IU/mL, 3.3 IU/mL, 1.1 IU/mL and 0.37 IU/mL) and 2′C-Me-C (concentrations of: 30 μM, 10 μM, 3.3 μM and 1.1 μM) served as assay controls.
Intracellular HCV RNA levels were measured using a conventional blot hybridization method, in which HCV RNA levels are normalized to the levels of β-actin RNA in each individual culture (Okuse, et al., Antivir. Res. 2005 65:23). Cytotoxicity was measured using an established neutral red dye uptake assay (Korba and Gerin, Antivir. Res. 1992 19:55; Okuse, et al., Antivir. Res. 2005 65:23). HCV RNA levels in the treated cultures are expressed as a percentage of the mean levels of RNA detected in untreated cultures. The absorbance of the internalized dye at […] (A510) was used for quantitative analysis.
Compounds were dissolved in 100% tissue culture grade DMSO (Sigma, Inc.) at 10 mM. Aliquots of test compounds sufficient for one daily treatment were made in individual tubes and all material was stored at −20° C. For the test, the compounds were suspended into culture medium at room temperature, and immediately added to the cell cultures. Compounds were analyzed separately in two groups with separate assay controls. The concentrations of the test compounds were run at concentrations of 10 μM, 3.3 μM, 1.1 μM and 0.37 μM. CC50, EC50 and EC90 were determined using the concentration response curve.
Background: Replicon systems follow genome replication, usually without infectious particles.

pEC50: −log10 of the molar value. Read-outs that look alike come from different tables or passages of the source.

Broadly, the pEC50 is the EC50 on a negative log10 scale, so that one unit is a factor of ten. Regarding `CC(O)[C@H]1O[C@@H](n2cnc3c(=O)[nH]c(N)nc32)[C@H](O)[C@@H]1O` (stereo partly drawn), the pEC50 (read-out: Activity (EC50)) is above 3.70.

Regarding `CCC(=O)O[C@@H](C)[C@H]1O[C@@H](n2ccc(N)nc2=O)C(F)(F)[C@@H]1OC(=O)CC`, the pEC50 (read-out: Activity (EC50)) was above 5.30.

In the case of `C[C@H](O)C1O[C@@H](n2cnc3c(N)ncnc32)[C@](C)(O)[C@@H]1O` (stereo in doubt) [Compound 9, 2′,5′-C-dimethyladenosine], where the note is “read-out: EC50”, the pEC50 was 5.00 to 6.00.

As to `COC(=O)[C@@H](C)N[P@](=O)(Oc1ccccc1)O[C@H](C)[C@H]1O[C@@H](n2cnc3c(N)ncnc32)[C@H](O)[C@@H]1O`, the negative logarithm of the EC50 (pEC50) (read-out: Activity (EC50)) was above 5.30.

`C[C@H](O)[C@H]1O[C@@H](n2ccc(N)nc2=O)[C@H](F)[C@@H]1O`: the negative logarithm of the EC50 (pEC50) (read-out: Activity (EC50)) was above 4.52.

In the case of `CO[C@@H]1[C@H](O)[C@@H](CO)O[C@H]1n1ccc(N)nc1=O` [Compound 8a, 2′-O-methylcytidine, reference compound], the pEC50 (read-out: EC50) was 5.00 to 6.00.

`CC(=O)O[C@@H](C)[C@H]1O[C@@H](n2ccc(N)nc2=O)C(F)(F)[C@@H]1OC(C)=O`: under “read-out: Activity (EC50)”, the pEC50 is above 5.30.

Consider `C[C@@H](O)[C@H]1O[C@@H](n2cnc3c(N)ncnc32)[C@](C)(O)[C@@H]1O`, for which, under “read-out: Activity (EC50)”, the pEC50 is above 4.52.

Regarding `C[C@@H](O)[C@H]1O[C@@H](n2ccc3c(N)ncnc32)[C@H](O)[C@@H]1O`, where the note is “read-out: Activity (EC50)”, the pEC50 is above 4.52.

Turning to `C[C@H](O)[C@H]1O[C@@H](n2ccc(N)nc2=O)C(F)(F)[C@@H]1O`, the pEC50 (read-out: Activity (EC50)) was above 5.30.

On to `C[C@@H](O)[C@H]1O[C@@H](n2ccc(N)nc2=O)C(F)(F)[C@@H]1O`, for which, for the setting “read-out: Activity (EC50)”, the pEC50 is above 5.30.

For `C[C@H](O)[C@H]1O[C@@H](n2ccc(N)nc2=O)[C@@H](O)[C@@H]1O`, the pEC50 (read-out: Activity (EC50)) is above 3.70.

`CC(OC(=O)c1ccccc1)[C@H]1O[C@@H](N2C=CC(N)NC2=O)[C@](C)(OC(=O)c2ccccc2)[C@@H]1OC(=O)c1ccccc1` (stereo partly drawn): the pEC50 (read-out: Activity (EC50)) was above 4.52.

As for `CC(=O)Nc1ccn([C@@H]2O[C@H]([C@H](C)OC(C)=O)[C@@H](OC(C)=O)C2(F)F)c(=O)n1`, under “read-out: Activity (EC50)”, the pEC50 is above 5.30.

Consider `CCC(=O)O[C@@H](C)[C@H]1O[C@@H](n2ccc(N)nc2=O)C(F)(F)[C@@H]1O`, for which the pEC50 (read-out: Activity (EC50)) is above 5.30.

For `CC(=O)O[C@@H](C)[C@H]1O[C@@H](n2ccc(N)nc2=O)C(F)(F)[C@@H]1O`, the pEC50 (read-out: Activity (EC50)) is above 5.30.

For the compound `C[C@@H](O)[C@H]1O[C@@H](n2ccc(N)nc2=O)[C@@H](O)[C@@H]1O`, the pEC50 (read-out: Activity (EC50)) is above 5.30.

Turning to `CC(O)[C@H]1O[C@@H](n2ccc(N)nc2=O)[C@@H](F)[C@@H]1O` (stereo partly drawn), the pEC50 (read-out: Activity (EC50)) was above 4.52.

The record behind these values is US20100249068A1, “S[…] NUCLEOTIDE ANALOGS” (Alios BioPharma, Inc., priority 2009, published 2010).
